Laboratory results from ChEMBL document CHEMBL1201862, “PubChem BioAssay data set” (2004).
Activity calls are given as the source filed them.

Tests used:
[1] = target: Mitogen-activated protein kinase 10 (Homo sapiens, UniProt P53779); assay: Dose response biochemical screening assay for inhibitors of c-Jun N-Terminal Kinase 3 (JNK3). [Related pubchem assays: 746 ]
[2] = target: T1, Protein Tat (Human immunodeficiency virus type 1 group M subtype B (isolate HXB2)(HIV-1), UniProt P04608); format: functional;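 note: tat binding to TAR RNA read out by fluorescence polarization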
T1 sequence (P04608 whole entry): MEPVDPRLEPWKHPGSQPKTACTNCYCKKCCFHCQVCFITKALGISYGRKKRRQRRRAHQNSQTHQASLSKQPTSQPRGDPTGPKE

[3] = Luminescence Cell-Based Dose Retest to Confirm Inhibitors of Cancer Stem Cells. [Related pubchem assays (depositor defined):AID2717, AID2721]; format: functional; conditions: Homo sapiens
[4] = test system: Vero; assay: host cell cytotoxicity of antiviral hits, dose response, cytotoxicity control for West Nile virus antiviral project, secondary assay (AID 1650); format: functional; conditions: Chlorocebus sabaeus
[5] = target: T2, Tyrosine-protein phosphatase non-receptor type 7 (Homo sapiens, UniProt P35236); assay: inhibitors of human HePTP phosphatase, […], biochemical, absorbance, leukemia target (AID 521); format: functional
T2 sequence (P35236 whole entry): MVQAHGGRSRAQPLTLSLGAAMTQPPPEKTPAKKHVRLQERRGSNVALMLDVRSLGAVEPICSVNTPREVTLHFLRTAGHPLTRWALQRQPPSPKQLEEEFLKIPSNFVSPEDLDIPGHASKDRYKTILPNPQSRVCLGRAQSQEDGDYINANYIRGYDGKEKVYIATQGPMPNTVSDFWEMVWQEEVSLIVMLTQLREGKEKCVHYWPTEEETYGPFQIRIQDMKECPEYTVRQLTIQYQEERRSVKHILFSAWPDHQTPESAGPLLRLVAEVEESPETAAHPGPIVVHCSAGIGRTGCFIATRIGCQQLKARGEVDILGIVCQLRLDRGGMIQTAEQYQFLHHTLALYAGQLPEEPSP

[6] = target: Glyceraldehyde-3-phosphate dehydrogenase (Homo sapiens, UniProt P04406)
Sequence of Glyceraldehyde-3-phosphate dehydrogenase (P04406 whole entry): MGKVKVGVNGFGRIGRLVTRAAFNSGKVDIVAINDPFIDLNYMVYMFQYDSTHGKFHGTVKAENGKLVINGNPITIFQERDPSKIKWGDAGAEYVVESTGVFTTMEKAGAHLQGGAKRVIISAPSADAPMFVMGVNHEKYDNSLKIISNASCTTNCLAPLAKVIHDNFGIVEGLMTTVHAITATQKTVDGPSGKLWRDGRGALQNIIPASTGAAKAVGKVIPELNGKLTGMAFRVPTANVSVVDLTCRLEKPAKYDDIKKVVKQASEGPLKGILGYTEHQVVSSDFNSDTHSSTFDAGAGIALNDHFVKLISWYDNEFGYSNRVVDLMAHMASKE

[7] = target: T3, Bcl-2-related protein A1 (Mus musculus, UniProt Q07440); assay: Bfl-1 inhibitors blocking BH3 peptide binding, confirmation, biochemical, TR-FRET, mouse Bfl-1 (AID 621);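 note: TR-FRET binding of GST-Bfl-1 to FITC-labelled Bid peptide via terbium antibody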
T3 sequence (Q07440 whole entry): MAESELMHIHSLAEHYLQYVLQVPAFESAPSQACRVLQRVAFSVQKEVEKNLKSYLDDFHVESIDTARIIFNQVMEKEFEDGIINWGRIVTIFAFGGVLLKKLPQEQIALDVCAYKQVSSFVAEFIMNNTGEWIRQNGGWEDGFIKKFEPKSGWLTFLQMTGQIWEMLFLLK

[8] = target: T3, Bcl-2-related protein A1; assay: Bfl-1 binding inhibitors, SAR follow-up, biochemical, fluorescence polarization (AID 1070)
[9] = target: T4, Microphthalmia-associated transcription factor (Homo sapiens, UniProt O75030); assay: TRPM1 promoter luciferase signal decrease, dose response, MITF inhibitor project, cell-based, SK-MEL-5, cherry-picked, set 3 (AID 493073); format: functional
T4 sequence (O75030 whole entry): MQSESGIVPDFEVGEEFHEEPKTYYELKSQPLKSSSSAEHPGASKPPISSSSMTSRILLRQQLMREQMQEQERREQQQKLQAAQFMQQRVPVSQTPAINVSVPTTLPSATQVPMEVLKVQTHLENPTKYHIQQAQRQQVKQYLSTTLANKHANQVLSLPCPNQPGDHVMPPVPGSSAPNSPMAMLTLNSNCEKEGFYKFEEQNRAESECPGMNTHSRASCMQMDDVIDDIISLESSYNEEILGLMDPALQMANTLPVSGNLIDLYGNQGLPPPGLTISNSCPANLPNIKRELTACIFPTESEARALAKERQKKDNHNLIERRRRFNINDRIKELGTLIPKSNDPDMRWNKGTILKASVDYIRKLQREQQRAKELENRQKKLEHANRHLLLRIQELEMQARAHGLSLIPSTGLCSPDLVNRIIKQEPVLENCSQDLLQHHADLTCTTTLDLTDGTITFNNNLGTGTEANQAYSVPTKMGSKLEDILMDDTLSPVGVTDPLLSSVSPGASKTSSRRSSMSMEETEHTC

[10] = target: T5, RNA-editing ligase 1, mitochondrial (Trypanosoma brucei brucei, UniProt P86926); assay: TbREL1 ligase inhibitors, dose response, biochemical, fluorescence, Trypanosoma brucei (AID 1117295); format: functional
T5 sequence (P86926 whole entry): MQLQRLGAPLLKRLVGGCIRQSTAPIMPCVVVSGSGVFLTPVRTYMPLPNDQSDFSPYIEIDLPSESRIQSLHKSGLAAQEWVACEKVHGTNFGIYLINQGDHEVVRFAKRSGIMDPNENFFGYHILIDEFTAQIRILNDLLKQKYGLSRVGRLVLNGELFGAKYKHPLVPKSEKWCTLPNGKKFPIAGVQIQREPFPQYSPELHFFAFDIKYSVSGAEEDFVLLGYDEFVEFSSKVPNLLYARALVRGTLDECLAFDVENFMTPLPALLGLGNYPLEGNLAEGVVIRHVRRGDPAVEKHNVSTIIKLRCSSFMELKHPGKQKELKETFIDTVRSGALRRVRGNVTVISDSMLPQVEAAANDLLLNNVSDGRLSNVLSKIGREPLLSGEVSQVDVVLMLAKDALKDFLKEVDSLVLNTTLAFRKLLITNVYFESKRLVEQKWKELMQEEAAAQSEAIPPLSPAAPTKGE

[11] = inhibitors of intracellular T. cruzi replication, confirmation, NIH3T3 host cells, beta-gal luminescence (AID 2044); format: functional, cell-based;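 note: intracellular parasites grown in NIH/3T3 mouse fibroblasts as host cells; luminescent beta-galactosidase reporter signal from transgenic T. cruzi replicating inside host cells; inhibitors lower the luminescence signal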
[12] = cytotoxicity toward NIH3T3 fibroblasts, dose response, counter-screen, cell-based, ATP luminescence, mouse fibroblasts (AID 2010); format: functional;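 note: cells exposed to compound for about 90 hours before reading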
[13] = cells
[14] = target: T6, Epstein-Barr nuclear antigen 1 (Epstein-Barr virus (strain B95-8) (HHV-4) (Human herpesvirus 4), UniProt P03211); assay: EBNA-1 inhibitors, dose response, biochemical, fluorescence polarization, 1536-well (AID 2381); set-up: species or system human gammaherpesvirus 4;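 note: fluorescence polarization of a Cy5 DNA probe bound by EBNA-1 protein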
T6 sequence (P03211 whole entry): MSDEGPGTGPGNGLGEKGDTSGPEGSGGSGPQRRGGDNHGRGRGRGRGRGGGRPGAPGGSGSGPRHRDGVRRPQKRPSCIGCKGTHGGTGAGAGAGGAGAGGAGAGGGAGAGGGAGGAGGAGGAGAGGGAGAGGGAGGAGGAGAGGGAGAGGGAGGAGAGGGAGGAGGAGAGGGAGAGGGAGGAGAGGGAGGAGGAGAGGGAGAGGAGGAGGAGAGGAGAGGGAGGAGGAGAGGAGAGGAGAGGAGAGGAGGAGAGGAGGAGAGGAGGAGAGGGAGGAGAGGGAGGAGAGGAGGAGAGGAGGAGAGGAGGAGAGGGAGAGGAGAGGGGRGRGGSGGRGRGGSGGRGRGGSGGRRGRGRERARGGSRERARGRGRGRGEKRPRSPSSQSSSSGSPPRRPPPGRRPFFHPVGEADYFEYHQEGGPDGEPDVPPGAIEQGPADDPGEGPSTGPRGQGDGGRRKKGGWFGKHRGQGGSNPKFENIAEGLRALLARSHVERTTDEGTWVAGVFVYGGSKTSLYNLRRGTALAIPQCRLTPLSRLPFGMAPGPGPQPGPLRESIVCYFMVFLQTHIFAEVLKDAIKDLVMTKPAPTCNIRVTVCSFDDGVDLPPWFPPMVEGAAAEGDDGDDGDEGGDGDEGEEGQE

[15] = C. albicans growth with fluconazole, confirmation, fluorescence, retest (AID 2467); format: functional, cell-based
[16] = target: T7, Lytic switch protein BZLF1 (Epstein-Barr virus (strain B95-8) (HHV-4) (Human herpesvirus 4), UniProt P03206); assay: EBV ZTA inhibitors, dose response, counter-screen for EBNA-1 inhibitor project, biochemical, fluorescence polarization, Epstein-Barr virus, 1536-well (AID 2377); set-up: species or system human gammaherpesvirus 4;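 note: fluorescence polarization of Cy5-labelled ZRE DNA probe bound by purified Zta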
T7 sequence (P03206 whole entry): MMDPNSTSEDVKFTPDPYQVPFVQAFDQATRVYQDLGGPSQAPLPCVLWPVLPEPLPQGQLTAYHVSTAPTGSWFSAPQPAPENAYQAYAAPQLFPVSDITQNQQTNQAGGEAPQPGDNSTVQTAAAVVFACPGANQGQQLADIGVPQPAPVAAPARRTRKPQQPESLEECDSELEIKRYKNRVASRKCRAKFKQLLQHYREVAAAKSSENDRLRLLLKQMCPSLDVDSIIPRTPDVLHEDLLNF

[17] = NIH-3T3 fibroblast cytotoxicity, dose response, cytotoxicity control, cell-based, fluorescence, Alamar Blue, secondary assay (AID 2327); format: functional;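 note: NIH-3T3 mouse fibroblasts cultured with fluconazole at 8 µg/mL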
[18] = cells; format: functional, cell-based
[19] = target: T8, Trace amine-associated receptor 1 (Homo sapiens, UniProt Q96RJ0); assay: Counterscreen for agonists of the human trace amine associated receptor 1 (hTAAR1): Fluorescence-based cell-based high throughput dose response assay to identify hTAAR1 agonist that also desensitize TAAR1 receptor response.; format: functional
T8 sequence (Q96RJ0 whole entry): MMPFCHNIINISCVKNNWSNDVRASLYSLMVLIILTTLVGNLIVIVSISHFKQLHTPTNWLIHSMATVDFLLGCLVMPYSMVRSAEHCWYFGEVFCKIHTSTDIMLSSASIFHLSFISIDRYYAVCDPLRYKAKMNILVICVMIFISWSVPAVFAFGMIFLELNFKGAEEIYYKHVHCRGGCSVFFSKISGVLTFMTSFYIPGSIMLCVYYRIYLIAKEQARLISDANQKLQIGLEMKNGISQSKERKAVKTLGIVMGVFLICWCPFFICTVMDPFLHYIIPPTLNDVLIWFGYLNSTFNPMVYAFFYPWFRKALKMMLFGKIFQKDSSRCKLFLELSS

[20] = cells; format: functional, cell-based; remark: listed apart in the source
[21] = target: T9, Mannose-6-phosphate isomerase (Homo sapiens, UniProt P34949); assay: human PMI inhibitors, high substrate, primary screen, biochemical, fluorescence intensity, high mannose 6-phosphate (AID 1220)
T9 sequence (P34949 whole entry): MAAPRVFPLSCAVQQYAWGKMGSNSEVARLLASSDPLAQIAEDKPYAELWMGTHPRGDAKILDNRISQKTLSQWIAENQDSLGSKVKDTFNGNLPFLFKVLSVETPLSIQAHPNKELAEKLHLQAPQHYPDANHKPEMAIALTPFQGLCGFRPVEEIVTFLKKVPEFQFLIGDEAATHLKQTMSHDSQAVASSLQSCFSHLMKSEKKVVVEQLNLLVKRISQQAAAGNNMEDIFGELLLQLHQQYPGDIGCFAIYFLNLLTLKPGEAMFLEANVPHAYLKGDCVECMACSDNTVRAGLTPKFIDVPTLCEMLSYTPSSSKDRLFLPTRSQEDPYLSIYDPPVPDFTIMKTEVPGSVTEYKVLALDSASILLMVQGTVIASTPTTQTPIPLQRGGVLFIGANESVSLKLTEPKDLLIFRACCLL

[22] = target: T8, Trace amine-associated receptor 1; assay: Fluorescence-based cell-based high throughput dose response assay to identify agonists of the human trace amine associated receptor 1 (TAAR1).; format: functional
[23] = P. falciparum 3D7-ScDHODH growth inhibitors, dose response, SYBR Green, dry powder samples (AID 1159570); format: functional, cell-based;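 note: parasite growth measured after 72 hours of compound exposure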
[24] = P. falciparum Dd2 growth inhibitors, dose response, SYBR Green, cherry-picked samples (AID 1159567); format: functional, cell-based
[25] = P. falciparum ATP4 D1247Y mutant growth inhibitors, dose response, NITD609-resistant line, SYBR Green, dry powder (AID 1159571); format: functional, cell-based;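 note: parasites synchronized at ring stage by sorbitol before testing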
[26] = P. falciparum Dd2 growth inhibitors, dose response, SYBR Green, dry powder samples (AID 1159566); format: functional, cell-based;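 note: potency for growth inhibition with lower SYBR green DNA signal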

Sequence of Mitogen-activated protein kinase 10 (P53779 whole entry): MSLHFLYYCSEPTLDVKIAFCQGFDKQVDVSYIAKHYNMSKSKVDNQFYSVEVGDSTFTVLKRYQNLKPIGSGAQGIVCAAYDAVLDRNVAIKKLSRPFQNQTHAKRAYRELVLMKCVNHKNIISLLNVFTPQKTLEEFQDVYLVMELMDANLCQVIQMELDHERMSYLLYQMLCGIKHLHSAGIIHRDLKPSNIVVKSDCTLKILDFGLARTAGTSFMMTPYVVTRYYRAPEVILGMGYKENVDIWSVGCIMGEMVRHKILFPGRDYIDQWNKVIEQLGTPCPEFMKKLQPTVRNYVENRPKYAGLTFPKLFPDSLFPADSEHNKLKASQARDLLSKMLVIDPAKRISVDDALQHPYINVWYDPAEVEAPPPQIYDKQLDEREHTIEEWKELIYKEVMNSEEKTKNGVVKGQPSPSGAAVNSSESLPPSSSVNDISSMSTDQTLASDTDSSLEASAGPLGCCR

## NC(=O)c1c(NC(=O)Cc2cccs2)sc2c1CCC2
[1]
  IC50: 28.3 µM (not active)
[2]
  IC50: > 100 µM (active)

## Cc1ccc(NNC(=O)C(O)(c2cccc(C(F)(F)F)c2)c2cccc(C(F)(F)F)c2)cc1
[3]
  AC50: 1.14 µM (active)
[4]
  CC50: 29.8 µM (active)

## CN(Cc1nc(-c2cccnc2)no1)S(=O)(=O)c1ccc(Br)cc1
[5]
  IC50: > 100 µM (not active)

## O=C1C(Cl)=C(Cl)C(=O)N1c1ccc(Cl)nc1
[6]
  IC50: > 100 µM (not active)
[7]
  IC50: 33.8 µM (active)
[8]
  IC50: > 100 µM (not active)

## CC1CCN(C2CC(=O)N(c3ccc(Cl)c(Cl)c3)C2=O)CC1 (centres undefined)
[6]
  IC50: > 100 µM (not active)
[7]
  IC50: > 100 µM (not active)
[8]
  IC50: > 100 µM (not active)

## COc1ccc2nc(C)cc(NCc3cccc(C(F)(F)F)c3)c2c1
[9]
  AC50: 18.2 µM (active)
[10]
  IC50: > 96.6 µM (inactive)

## Cc1n[nH]c(C)c1S(=O)(=O)N1CCCC(C(=O)Nc2ccc3c(c2)OCCO3)C1 (centres undefined)
[5]
  IC50: > 100 µM (not active)

## O=C1C(Cl)=C(N2CCN(c3ccccc3Cl)CC2)C(=O)N1c1ccc(Cl)c(Cl)c1
[6]
  IC50: > 100 µM (not active)
[7]
  IC50: > 100 µM (not active)
[8]
  IC50: > 100 µM (not active)

## CCn1c(SCC(=O)c2ccccc2)nc2sc3c(c2c1=O)CCN(C)C3
[11]
  EC50: < 0.1 µM (active)
[12]
  EC50: > 60 µM (not active)
[13]
  EC50: 0.061 µM (active)

## O=C(CSc1nnc(-c2ccc(Br)cc2)o1)Nc1cccc2ccccc12
[14]
  IC50: 14.3 µM (not active)
[15]
  EC50: > 38 µM (not active)
[16]
  IC50: > 111 µM (not active)
[17]
  EC50: > 150 µM (inconclusive)

## CC1CCCN(C(=S)SCC(=O)c2cc(Br)cc(Br)c2O)C1 (centres undefined)
[18]
  IC50: > 29.9 µM (inactive)
[19]
  IC50: 4.68 µM (active)
[20]
  EC50: > 29.9 µM (inactive)
[21]
  IC50: > 50 µM (not active)
[22]
  EC50: 0.732 µM (active)

## O=P(O)(CN1CCCCCC1)CN1CCCCCC1
[2]
  IC50: > 100 µM (active)

## C[C@@H]1CN([C@H](C)CO)C(=O)c2cc(NC(=O)Nc3ccc(C(F)(F)F)cc3)ccc2O[C@H]1CN(C)C(=O)Nc1cccc2ccccc12
[23]
  AC50: 1.43 µM (active)
[24]
  AC50: 1.68 µM (active)
[25]
  AC50: 2 µM (active)
[26]
  AC50: 1.99 µM (active)

## O=C(c1ccncc1)N1CC(=O)N2[C@H](C1)[C@@H](c1ccc(-c3cccnc3)cc1)[C@@H]2CO
[23]
  AC50: 0.188 µM (active)
[24]
  AC50: < 0.3 µM (active)
[25]
  AC50: 0.161 µM (active)
[26]
  AC50: 0.112 µM (active)

## CN1CCC(N[C@@H](Cc2ccccc2)C(=O)NCC(c2ccccc2)c2ccccc2)(C(=O)NC2CCCCC2)CC1
[10]
  IC50: > 96.6 µM (inactive)
